pEC50: −log10 of the molar value. Each block holds one molecule with its values, some of them ahead of it.
Experiments:
ER [1] = settings: triphenyl acrylonitriles; cited from earlier work
[2] = tested on: human endometrial adenocarcinoma cells (Ishikawa); experiment: Estrogen bioassay: induction of AlkP in Ishikawa cells; assay type: cell-based
ER [3] = settings: cited from earlier work

Structure (SMILES): COc1ccc(C(=C(C#N)c2ccc(O)cc2)c2ccc(O)cc2)cc1
efficacy (ER [1]): ‘partial’ agonist responses

Structure (SMILES): COc1ccc([C@H]2C[C@]3(C)[C@@H](O)CC[C@H]3[C@@H]3CCc4cc(O)ccc4[C@H]32)cc1 [Compound 5, 11β-(4-Methoxyphenyl)estra-1,3,5(10)-trien-3,17β-diol]
Max stim ([2]; maximal stimulation of AlkP in Ishikawa cells, printed in the RSA column): Max stim = 35–45%

pEC50 ([2]; Homo sapiens, Ishikawa, read-out: EC50 of E2): ~9.70
Structure (SMILES): C[C@]12CC[C@@H]3c4ccc(O)cc4CC[C@H]3[C@@H]1CC[C@@H]2O [Compound E2, estradiol]

Structure (SMILES): CC/C(=C(\c1ccccc1)c1ccc(OCCN(C)C)cc1)c1ccccc1 [tamoxifen]
affinity (RBA) (ER [3]): ~ 1%

Structure (SMILES): N#CC(=C(c1ccc(O)cc1)c1ccc(O)cc1)c1ccc(O)cc1 [α,α′,β-tris(4-hydroxyphenyl) compound]
efficacy (ER [1]): full agonist

Source: article PMC3581310 (Bioorganic & medicinal chemistry, 2012)
